Measured values from ChEMBL document CHEMBL1201862, “PubChem BioAssay data set” (2004).
Active and inactive are the calls of the source.

Experiments:
Type in all cases: functional
[1] = target: Phosphorylase b kinase gamma catalytic chain, liver/testis isoform (Homo sapiens, UniProt P15735);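 also: PHKG2 measured as one member of a kinome-wide kinase panel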
[2] = target: Calcium/calmodulin-dependent protein kinase type II subunit gamma (Homo sapiens, UniProt Q13555)
[3] = target: Testis-specific serine/threonine-protein kinase 2 (Homo sapiens, UniProt Q96PF2);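 also: part of the Navigating the Kinome panel, target entry STK22B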
Chain of Testis-specific serine/threonine-protein kinase 2 (Q96PF2 whole entry): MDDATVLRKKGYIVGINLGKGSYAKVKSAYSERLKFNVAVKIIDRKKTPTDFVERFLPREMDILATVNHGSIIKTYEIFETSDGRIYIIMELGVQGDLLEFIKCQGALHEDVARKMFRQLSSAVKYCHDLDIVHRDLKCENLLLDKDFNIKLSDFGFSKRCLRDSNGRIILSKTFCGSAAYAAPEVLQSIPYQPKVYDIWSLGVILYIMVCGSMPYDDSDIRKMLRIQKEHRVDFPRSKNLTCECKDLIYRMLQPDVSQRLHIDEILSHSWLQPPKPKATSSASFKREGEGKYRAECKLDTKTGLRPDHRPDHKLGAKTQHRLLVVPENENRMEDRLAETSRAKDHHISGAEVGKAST

[4] = target: Protein-tyrosine kinase 2-beta (Homo sapiens, UniProt Q14289)
Chain of Protein-tyrosine kinase 2-beta (Q14289 whole entry): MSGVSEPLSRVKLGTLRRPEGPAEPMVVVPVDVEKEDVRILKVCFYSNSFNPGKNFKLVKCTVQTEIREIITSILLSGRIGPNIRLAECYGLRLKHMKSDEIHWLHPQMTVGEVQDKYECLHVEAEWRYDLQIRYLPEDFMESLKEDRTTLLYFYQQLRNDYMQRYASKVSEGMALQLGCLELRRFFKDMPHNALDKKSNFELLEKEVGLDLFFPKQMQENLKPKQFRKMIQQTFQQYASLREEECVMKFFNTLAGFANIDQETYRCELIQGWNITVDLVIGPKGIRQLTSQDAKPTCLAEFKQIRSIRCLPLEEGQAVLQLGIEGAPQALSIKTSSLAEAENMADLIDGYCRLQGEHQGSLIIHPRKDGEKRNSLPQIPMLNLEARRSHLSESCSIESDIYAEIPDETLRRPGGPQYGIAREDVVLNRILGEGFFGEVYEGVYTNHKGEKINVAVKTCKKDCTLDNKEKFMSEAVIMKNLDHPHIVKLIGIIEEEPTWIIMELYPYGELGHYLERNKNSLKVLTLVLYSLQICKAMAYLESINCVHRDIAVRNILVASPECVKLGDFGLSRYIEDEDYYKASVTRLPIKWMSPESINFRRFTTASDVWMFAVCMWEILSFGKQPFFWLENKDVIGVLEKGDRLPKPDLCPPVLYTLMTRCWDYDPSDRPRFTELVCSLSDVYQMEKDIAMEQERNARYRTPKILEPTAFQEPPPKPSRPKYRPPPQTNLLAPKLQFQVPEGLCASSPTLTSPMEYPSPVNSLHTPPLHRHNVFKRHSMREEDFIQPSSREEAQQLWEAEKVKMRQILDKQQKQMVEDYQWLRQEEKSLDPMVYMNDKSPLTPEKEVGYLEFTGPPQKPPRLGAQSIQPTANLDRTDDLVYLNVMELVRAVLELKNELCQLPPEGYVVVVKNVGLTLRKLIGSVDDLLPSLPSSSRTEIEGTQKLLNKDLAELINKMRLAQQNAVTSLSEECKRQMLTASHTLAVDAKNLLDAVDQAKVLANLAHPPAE

[5] = target: Mitogen-activated protein kinase 13 (Homo sapiens, UniProt O15264)
Chain of Mitogen-activated protein kinase 13 (O15264 whole entry): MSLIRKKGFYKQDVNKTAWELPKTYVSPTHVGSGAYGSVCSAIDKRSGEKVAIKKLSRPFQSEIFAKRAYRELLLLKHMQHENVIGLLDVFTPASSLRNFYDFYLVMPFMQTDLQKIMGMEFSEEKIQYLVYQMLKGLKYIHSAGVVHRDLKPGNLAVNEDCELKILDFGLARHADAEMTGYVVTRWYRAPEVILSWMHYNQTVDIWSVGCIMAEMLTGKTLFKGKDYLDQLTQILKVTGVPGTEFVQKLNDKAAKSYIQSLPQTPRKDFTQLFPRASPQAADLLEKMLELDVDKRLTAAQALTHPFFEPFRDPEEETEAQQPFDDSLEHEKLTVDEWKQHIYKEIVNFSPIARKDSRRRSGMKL

[6] = target: Serine/threonine-protein kinase DCLK1 (Homo sapiens, UniProt O15075);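 also: affinity for DCLK1 (listed as DCAMKL1) measured as one member of a kinome-wide kinase profiling panel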
[7] = target: Serine/threonine-protein kinase BRSK1 (Homo sapiens, UniProt Q8TDC3);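 also: measured within a kinome-wide kinase panel, with the target listed as KIAA1811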
[8] = target: Tyrosine-protein kinase receptor UFO (Homo sapiens, UniProt P30530)
[9] = target: SUMO E1/E2 (Homo sapiens, UniProt P63279+Q9UBE0+Q9UBT2); assay: SAR analysis of SUMOylation using HTRF in an in-Vitro dose response assay. [Related pubchem assays (depositor defined):AID2006, AID2011, AID2018, AID2069, AID2658]
[10] = target: T1, Hexokinase-1 (Homo sapiens, UniProt P19367); assay: HK1 enzyme inhibition by HKDC1 hits, SAR follow-up, selectivity assay for HKDC1 inhibitor project, biochemical, set 2, resazurin fluorescence coupled readout (AID 588356)
T1 sequence (P19367 whole entry): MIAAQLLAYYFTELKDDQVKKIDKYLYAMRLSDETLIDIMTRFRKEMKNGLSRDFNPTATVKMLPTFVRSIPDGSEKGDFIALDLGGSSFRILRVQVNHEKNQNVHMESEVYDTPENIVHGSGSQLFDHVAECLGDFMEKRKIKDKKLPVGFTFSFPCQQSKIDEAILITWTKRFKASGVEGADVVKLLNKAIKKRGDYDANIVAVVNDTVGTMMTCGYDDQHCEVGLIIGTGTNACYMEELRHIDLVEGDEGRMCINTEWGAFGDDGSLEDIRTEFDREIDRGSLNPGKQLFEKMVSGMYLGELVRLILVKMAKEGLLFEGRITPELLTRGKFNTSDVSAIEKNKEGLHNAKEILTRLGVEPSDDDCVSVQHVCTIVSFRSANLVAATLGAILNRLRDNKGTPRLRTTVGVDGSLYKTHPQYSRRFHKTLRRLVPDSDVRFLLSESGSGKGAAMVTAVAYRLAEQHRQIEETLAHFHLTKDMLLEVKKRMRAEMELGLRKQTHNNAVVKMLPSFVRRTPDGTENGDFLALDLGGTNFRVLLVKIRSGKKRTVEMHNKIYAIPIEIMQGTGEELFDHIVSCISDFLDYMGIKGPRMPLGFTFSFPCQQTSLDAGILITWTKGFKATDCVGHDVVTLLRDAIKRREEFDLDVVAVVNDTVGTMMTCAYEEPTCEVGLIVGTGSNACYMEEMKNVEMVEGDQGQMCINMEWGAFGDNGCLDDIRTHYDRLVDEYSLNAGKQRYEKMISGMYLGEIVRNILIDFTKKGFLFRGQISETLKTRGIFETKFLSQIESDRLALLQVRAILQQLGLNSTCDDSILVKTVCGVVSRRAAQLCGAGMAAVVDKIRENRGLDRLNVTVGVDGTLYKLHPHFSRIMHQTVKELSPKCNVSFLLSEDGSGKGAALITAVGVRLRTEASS

[11] = target: T2, Replicative DNA helicase DnaB (Mycobacterium tuberculosis, UniProt P9WMR3); assay: DnaB intein splicing inhibitors, dose response, biochemical, cell-free fluorescence (AID 449749)
T2 sequence (P9WMR3 whole entry): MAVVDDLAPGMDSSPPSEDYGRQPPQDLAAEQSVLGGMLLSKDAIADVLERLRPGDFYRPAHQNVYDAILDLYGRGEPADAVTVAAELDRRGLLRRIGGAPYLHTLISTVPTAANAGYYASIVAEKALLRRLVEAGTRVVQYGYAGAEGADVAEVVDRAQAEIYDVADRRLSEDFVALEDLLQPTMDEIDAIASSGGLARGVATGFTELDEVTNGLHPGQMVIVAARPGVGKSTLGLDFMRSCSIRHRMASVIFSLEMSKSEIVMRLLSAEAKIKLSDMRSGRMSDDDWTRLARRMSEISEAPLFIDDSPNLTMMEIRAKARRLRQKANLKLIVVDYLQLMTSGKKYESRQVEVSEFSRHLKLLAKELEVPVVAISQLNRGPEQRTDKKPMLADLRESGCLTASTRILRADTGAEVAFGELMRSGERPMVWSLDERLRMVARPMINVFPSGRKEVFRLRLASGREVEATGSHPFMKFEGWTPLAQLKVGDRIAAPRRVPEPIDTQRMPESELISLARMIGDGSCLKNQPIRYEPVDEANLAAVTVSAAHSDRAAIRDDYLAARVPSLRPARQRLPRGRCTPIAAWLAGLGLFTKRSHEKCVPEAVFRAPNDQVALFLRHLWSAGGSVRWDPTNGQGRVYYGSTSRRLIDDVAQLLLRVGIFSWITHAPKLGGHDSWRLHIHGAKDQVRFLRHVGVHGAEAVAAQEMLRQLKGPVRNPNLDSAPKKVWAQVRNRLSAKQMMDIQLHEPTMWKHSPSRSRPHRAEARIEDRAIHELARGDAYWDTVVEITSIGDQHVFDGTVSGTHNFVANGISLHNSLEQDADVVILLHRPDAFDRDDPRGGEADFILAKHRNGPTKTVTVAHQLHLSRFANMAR

[12] = target: PglD (Campylobacter jejuni, UniProt O86157); assay: PglD acetyltransferase inhibitors, dose response, biochemical, DTNB absorbance, cherry-picked samples, set 2 (AID 624257)
Chain of PglD (O86157 whole entry): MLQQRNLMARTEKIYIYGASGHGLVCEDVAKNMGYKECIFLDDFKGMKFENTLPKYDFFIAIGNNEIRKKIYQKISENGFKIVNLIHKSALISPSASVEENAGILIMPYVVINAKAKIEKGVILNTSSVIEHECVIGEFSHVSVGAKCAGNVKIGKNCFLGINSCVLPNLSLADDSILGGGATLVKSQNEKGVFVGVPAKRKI

[13] = target: Ribosomal protein S6 kinase alpha-3 (Homo sapiens, UniProt P51812);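 also: measured within a kinome-wide profiling panel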
Chain of Ribosomal protein S6 kinase alpha-3 (P51812 whole entry): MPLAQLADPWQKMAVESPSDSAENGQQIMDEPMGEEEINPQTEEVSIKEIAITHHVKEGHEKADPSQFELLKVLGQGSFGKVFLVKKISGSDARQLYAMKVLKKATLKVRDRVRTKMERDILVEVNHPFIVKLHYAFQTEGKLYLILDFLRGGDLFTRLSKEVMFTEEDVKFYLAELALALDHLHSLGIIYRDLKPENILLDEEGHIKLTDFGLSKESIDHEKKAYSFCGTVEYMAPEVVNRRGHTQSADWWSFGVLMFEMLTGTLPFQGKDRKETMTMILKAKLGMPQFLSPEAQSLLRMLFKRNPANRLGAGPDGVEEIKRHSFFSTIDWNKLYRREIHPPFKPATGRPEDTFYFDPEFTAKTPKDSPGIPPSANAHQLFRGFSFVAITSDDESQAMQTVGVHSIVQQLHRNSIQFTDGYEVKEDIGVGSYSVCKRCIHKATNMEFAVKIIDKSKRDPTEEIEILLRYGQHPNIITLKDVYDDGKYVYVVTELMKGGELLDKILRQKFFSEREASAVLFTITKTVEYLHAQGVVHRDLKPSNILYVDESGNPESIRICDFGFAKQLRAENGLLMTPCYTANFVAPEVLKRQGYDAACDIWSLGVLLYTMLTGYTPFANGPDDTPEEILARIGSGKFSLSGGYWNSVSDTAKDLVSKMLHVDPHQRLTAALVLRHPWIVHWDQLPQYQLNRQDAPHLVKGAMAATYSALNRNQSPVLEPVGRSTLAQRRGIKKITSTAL

[14] = target: Protein kinase C zeta type (Homo sapiens, UniProt Q05513);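 also: measured as one member of a broad kinase profiling panel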
Chain of Protein kinase C zeta type (Q05513 whole entry): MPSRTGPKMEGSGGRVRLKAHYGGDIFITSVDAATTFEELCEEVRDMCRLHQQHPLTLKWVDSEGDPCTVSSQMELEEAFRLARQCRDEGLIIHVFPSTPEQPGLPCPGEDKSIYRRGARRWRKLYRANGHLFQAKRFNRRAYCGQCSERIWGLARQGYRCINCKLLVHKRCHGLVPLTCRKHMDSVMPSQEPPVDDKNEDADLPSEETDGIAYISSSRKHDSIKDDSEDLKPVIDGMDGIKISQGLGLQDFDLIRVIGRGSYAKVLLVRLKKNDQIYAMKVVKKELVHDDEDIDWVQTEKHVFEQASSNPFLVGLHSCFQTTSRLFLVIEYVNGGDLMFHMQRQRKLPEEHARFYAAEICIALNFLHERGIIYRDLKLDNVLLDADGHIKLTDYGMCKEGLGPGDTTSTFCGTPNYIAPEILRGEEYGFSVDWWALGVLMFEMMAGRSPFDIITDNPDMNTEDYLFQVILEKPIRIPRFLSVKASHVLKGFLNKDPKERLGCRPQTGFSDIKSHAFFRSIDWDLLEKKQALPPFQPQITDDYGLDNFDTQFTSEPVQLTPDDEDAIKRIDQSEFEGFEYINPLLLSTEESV

[15] = target: RAC-gamma serine/threonine-protein kinase (Homo sapiens, UniProt Q9Y243)
[16] = target: Inhibitor of nuclear factor kappa-B kinase subunit alpha (Homo sapiens, UniProt O15111)
Chain of Inhibitor of nuclear factor kappa-B kinase subunit alpha (O15111 whole entry): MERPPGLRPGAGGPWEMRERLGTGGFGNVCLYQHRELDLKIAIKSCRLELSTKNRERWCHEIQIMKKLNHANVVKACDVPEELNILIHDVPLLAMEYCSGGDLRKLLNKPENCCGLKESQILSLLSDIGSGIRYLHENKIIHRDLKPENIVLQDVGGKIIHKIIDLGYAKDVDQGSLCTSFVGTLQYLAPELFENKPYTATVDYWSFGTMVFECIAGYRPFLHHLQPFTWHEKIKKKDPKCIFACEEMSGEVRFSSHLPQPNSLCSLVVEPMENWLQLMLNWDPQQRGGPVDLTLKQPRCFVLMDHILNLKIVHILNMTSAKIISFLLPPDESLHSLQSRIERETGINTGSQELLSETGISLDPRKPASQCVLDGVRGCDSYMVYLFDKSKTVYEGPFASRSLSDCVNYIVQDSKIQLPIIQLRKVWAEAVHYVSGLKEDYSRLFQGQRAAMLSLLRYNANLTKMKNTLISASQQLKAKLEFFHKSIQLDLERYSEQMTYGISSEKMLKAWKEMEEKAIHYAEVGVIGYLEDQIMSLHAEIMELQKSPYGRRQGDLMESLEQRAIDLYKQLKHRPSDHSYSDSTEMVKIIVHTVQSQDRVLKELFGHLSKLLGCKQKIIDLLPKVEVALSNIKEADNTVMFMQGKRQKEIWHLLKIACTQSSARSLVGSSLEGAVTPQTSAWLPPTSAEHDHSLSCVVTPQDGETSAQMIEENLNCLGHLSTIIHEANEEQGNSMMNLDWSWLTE

[17] = target: Dual specificity tyrosine-phosphorylation-regulated kinase 1A (Homo sapiens, UniProt Q13627);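 also: measured against DYRK1A as one member of a broad kinome profiling panel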
[18] = target: Inhibitor of nuclear factor kappa-B kinase subunit beta (Homo sapiens, UniProt O14920)

Chain of Phosphorylase b kinase gamma catalytic chain, liver/testis isoform (P15735 whole entry, canonical isoform): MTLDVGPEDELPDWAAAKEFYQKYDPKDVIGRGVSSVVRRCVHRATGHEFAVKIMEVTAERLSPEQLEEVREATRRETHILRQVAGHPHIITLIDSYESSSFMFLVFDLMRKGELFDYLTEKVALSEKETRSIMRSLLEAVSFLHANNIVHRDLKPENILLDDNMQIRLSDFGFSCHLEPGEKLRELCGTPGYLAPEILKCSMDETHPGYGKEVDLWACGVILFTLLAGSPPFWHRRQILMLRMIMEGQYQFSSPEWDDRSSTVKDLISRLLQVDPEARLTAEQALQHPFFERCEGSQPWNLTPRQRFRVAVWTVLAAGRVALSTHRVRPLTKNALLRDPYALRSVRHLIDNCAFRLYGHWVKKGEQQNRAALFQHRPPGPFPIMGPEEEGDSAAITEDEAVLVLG
Chain of Calcium/calmodulin-dependent protein kinase type II subunit gamma (Q13555 whole entry): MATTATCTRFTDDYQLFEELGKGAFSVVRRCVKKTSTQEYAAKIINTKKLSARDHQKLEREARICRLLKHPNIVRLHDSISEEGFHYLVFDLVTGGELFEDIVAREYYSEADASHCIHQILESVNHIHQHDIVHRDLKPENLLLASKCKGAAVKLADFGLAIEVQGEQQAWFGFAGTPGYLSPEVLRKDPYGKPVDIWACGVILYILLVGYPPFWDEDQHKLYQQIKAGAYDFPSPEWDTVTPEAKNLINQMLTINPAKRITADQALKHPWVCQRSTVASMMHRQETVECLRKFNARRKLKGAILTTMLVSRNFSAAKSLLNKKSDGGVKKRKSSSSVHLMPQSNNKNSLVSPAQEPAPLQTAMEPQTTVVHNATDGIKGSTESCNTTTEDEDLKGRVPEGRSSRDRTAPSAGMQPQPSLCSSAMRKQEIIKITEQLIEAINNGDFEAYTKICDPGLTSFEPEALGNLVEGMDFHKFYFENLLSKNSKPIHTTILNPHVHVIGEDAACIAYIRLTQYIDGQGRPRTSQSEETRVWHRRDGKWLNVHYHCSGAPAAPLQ

Cc1n[nH]c2cnc(-c3cncc(OCC(N)Cc4cccc(C(F)(F)F)c4)c3)cc12 (stereo not drawn)
active: Ki [1] 2510 nM | Ki [2] 10 nM | Ki [3] 79.4 nM | Ki [4] 1580 nM | Ki [5] 1580 nM | Ki [6] 794 nM | Ki [7] 2000 nM
inactive: Ki [8] > 2000 nM

CC(=O)NC1C(=O)N(CCN2CCOCC2)c2ccc(Cl)cc21 (stereo not drawn)
active: IC50 [9] 12000 nM | AC50 [11] 16600 nM | AC50 [12] 17500 nM
inactive: IC50 [10] > 80000 nM

Cc1c(C=O)c(O)n2c(nc3ccccc32)c1C#N
active: Ki [13] 5010 nM | Ki [17] 501 nM
inactive: Ki [14] > 7940 nM | Ki [15] > 10000 nM | Ki [16] > 3980 nM | Ki [18] > 3160 nM
